According to patent US20070117858A1, “SUBSTITUTED 5-HETEROARYL-1-PHENYL-PYRAZOLE CANNABINOID MODULATORS” (priority 2005, published 2007):
Read-outs that look alike come from different tables or passages of the source.

Legend:
human CB1 receptor = target: T1, human CB1 receptor (Homo sapiens, UniProt P21554); experiment: Cannabinoid CB1 receptor binding assay ([3H]-CP-55,940 displacement, SK-N-MC cell membranes); conditions: for inhibition at 0.2 µM: 1.5 h, read-out: Cannabinoid CB1 Receptor Binding, percent inhibition
T1 construct: expressed in transfected cells; host or cells: SK-N-MC cells, stably transfected with pcDNA3 CB-1 (human); semi-purified membrane pellet
Method: (§1) Binding Assay for CB1 or CB2 Agonists or Inverse Agonists
(§2) The human CB1 and CB2 receptors were stably expressed in SK-N-MC cells transfected with pcDNA3 CB-1 (human) or pcDNA3 CB-2 (human). The cells were grown in T-180 cell culture flasks under standard cell culture conditions at 37° C. in a 5% CO2 atmosphere. The cells were harvested by trysinization and homogenized in a homogenization buffer (10 mM Tris, 0.2 mM MgCl2, 5 mM KCl, with protease inhibitors aprotinin, leupeptin, pepstatin A and bacitracin) and centrifuged (2000 g). The supernatant was then centrifuged in 2M sucrose (31,300 g) to produce a semi-purified membrane pellet. The pellet was resuspended in homogenization and stored at −80° C.
(§3) On the day of the assay, the pellet was thawed on ice and diluted in assay buffer (50 mM Tris-HCl, 5 mM MgCl2, 2.5 mM EDTA, 0.5 mg/mL fatty acid free bovine serum albumin, pH 7.5). The diluted membrane pellet was added with buffer, either a test compound or vehicle standard and the radioligand […] (0.2 nM) to the wells of a 96-well polypropylene plate. Non-specific binding was measured in wells containing W1N 55,212 (10 uM). The plate was covered and incubated for 90 minutes at 30° C. The contents were then aspirated onto a Packard Unifilter GF/C filter bottom plate prewet with 0.5% polyethyleneimine. The wells of the polypropylene plate were rinsed and aspirated seven times with a 0.9% saline-0.5% Tween 20 solution. The Unifilter plate was dried, scintillation cocktail was added to each well and the counts representing binding were quantitated in a TopCount scintillation counter.
(§4) For compounds tested, an IC50 binding value was obtained from percent inhibition studies in which various test concentrations were used. The binding value was calculated by linear regression.
(§5) For compounds without an IC50 binding value, the percent inhibition (%) was obtained at a test concentration of 0.2 μM.

human CB2 receptor = target: T2, human CB2 receptor (Homo sapiens, UniProt P34972); experiment: Cannabinoid CB2 receptor binding assay ([3H]-CP-55,940 displacement, SK-N-MC cell membranes); conditions: 1.5 h; test concentration of 0.2 μM; radioligand CP-55,940 0.2 nM; read-out: Cannabinoid CB2 Receptor Binding, percent inhibition
T2 construct: expressed in transfected cells; host or cells: SK-N-MC cells, stably transfected with pcDNA3 CB-2 (human); semi-purified membrane pellet
Method: as §1, §2, §3, §4, §5

T1 sequence (P21554 whole entry): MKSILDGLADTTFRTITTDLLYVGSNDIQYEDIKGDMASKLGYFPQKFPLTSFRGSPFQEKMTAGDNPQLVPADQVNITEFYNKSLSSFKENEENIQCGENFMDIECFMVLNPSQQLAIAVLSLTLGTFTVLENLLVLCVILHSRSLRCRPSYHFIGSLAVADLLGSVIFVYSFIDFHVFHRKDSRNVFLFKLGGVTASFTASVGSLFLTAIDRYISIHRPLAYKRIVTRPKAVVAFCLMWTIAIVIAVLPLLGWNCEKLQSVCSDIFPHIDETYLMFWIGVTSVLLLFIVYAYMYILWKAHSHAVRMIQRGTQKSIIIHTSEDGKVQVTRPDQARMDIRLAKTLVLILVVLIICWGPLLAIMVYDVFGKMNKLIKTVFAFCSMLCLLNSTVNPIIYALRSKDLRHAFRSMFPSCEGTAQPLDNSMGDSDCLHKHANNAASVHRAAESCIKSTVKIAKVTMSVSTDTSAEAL
T2 sequence (P34972 whole entry): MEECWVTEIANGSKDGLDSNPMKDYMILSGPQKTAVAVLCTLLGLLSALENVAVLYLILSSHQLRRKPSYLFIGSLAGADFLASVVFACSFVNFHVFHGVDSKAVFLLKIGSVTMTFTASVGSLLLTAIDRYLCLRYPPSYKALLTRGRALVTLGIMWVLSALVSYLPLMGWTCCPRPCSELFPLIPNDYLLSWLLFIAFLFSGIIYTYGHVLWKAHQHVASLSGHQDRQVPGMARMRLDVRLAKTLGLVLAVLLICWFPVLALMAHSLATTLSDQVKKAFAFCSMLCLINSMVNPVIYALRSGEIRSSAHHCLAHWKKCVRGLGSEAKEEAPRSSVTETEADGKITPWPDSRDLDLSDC

Row | Compound | inhibition at 0.2 µM (human CB1 receptor) | inhibition at 0.2 µM (human CB2 receptor) | IC50 (human CB1 receptor) | IC50 (human CB1 receptor; from percent inhibition studies at various test concentrations, calculated by linear regression, radioligand CP-55,940 0.2 nM, read-out: Cannabinoid CB1 Receptor Binding, IC50 binding value)
1 | Cc1c(C(=O)NN2CCC(O)CC2)nn(-c2ccc(Cl)cc2Cl)c1-c1ccc(Cl)s1 [Cpd 4, 5-(5-chloro-thiophen-2-yl)-1-(2,4-dichloro-phenyl)-4-methyl-1H-pyrazole-3-carboxylic acid (4-hydroxy-piperidin-1-yl)-amide] | 27% | 11% | – | –
2 | Cc1c(C(=O)N[C@H](C)C2CCCCC2)nn(-c2ccc(Cl)cc2Cl)c1-c1ccc(Cl)s1 [Cpd 13, 5-(5-chloro-thiophen-2-yl)-1-(2,4-dichloro-phenyl)-4-methyl-1H-pyrazole-3-carboxylic acid [(1R)-1-cyclohexyl-ethyl]-amide] | – | 37% | 74 nM | –
3 | CCc1c(C(=O)N[N+]2(C)CCCCC2)nn(-c2ccc(Cl)cc2Cl)c1-c1ccc(Br)s1 [Cpd 52, 1-{[5-(5-bromo-thiophen-2-yl)-1-(2,4-dichloro-phenyl)-4-ethyl-1H-pyrazole-3-carbonyl]-amino}-1-methyl-piperidinium] | 51% | 0% | – | –
4 | C[C@@H](NC(=O)c1nn(-c2ccc(Cl)cc2Cl)c(-c2cccs2)c1C#N)c1ccccn1 [Cpd 17, 4-cyano-1-(2,4-dichloro-phenyl)-5-thiophen-2-yl-1H-pyrazole-3-carboxylic acid [(1R)-1-pyridin-2-yl-ethyl]-amide] | 25% | 14% | – | –
5 | Cc1c(C(=O)N[C@@H](C)c2ccccn2)nn(-c2ccc(Cl)cc2Cl)c1-c1cc(Br)cs1 [Cpd 47, 5-(4-bromo-thiophen-2-yl)-1-(2,4-dichloro-phenyl)-4-methyl-1H-pyrazole-3-carboxylic acid [(1S)-1-pyridin-2-yl-ethyl]-amide] | 56% | 46% | – | –
6 | N#Cc1c(C(=O)NN2CCCCC2)nn(-c2ccc(Cl)cc2Cl)c1-c1cccs1 [Cpd 20, 4-cyano-1-(2,4-dichloro-phenyl)-5-thiophen-2-yl-1H-pyrazole-3-carboxylic acid piperidin-1-ylamide] | 37% | 9% | – | –
7 | Cc1c(C(=O)N[C@H](C)c2ccccc2)nn(-c2ccc(Cl)cc2Cl)c1-c1cccs1 [Cpd 6, 1-(2,4-dichloro-phenyl)-4-methyl-5-thiophen-2-yl-1H-pyrazole-3-carboxylic acid [(1R)-1-phenyl-ethyl]-amide] | 57% | 8% | – | –
8 | CCc1c(C(=O)N[C@@H](C)c2ccccn2)nn(-c2ccc(Cl)cc2Cl)c1-c1ccc(Br)s1 [Cpd 41, 5-(5-bromo-thiophen-2-yl)-1-(2,4-dichloro-phenyl)-4-ethyl-1H-pyrazole-3-carboxylic acid [(1S)-1-pyridin-2-yl-ethyl]-amide] | – | 45% | 15 nM | –
9 | Cc1c(C(=O)N2CCCCC2)nn(-c2ccc(Cl)cc2Cl)c1-c1cc(Br)cs1 [Cpd 45, [5-(4-bromo-thiophen-2-yl)-1-(2,4-dichloro-phenyl)-4-methyl-1H-pyrazol-3-yl]-piperidin-1-yl-methanone] | 33% | 12% | – | –
10 | Cc1c(C(=O)N[C@@H](C)C2CCCCC2)nn(-c2ccc(Cl)cc2Cl)c1-c1cc(Br)cs1 [Cpd 48, 5-(4-bromo-thiophen-2-yl)-1-(2,4-dichloro-phenyl)-4-methyl-1H-pyrazole-3-carboxylic acid [(1S)-1-cyclohexyl-ethyl]-amide] | 60% | 49% | – | –
11 | C[C@H](NC(=O)c1nn(-c2ccc(Cl)cc2Cl)c(-c2ccc(Cl)s2)c1C#N)c1ccccc1 [Cpd 26, 5-(5-chloro-thiophen-2-yl)-4-cyano-1-(2,4-dichloro-phenyl)-1H-pyrazole-3-carboxylic acid [(1S)-1-phenyl-ethyl]-amide] | – | 16% | 110 nM | –
12 | Cc1c(C(=O)N[C@@H](C)c2ccccn2)nn(-c2ccc(Cl)cc2Cl)c1-c1cccs1 [Cpd 9, 1-(2,4-dichloro-phenyl)-4-methyl-5-thiophen-2-yl-1H-pyrazole-3-carboxylic acid [(1S)-1-pyridin-2-yl-ethyl]-amide] | 25% | 8% | – | –
13 | CCc1c(C(=O)N[C@@H](C)C2CCCCC2)nn(-c2ccc(Cl)cc2Cl)c1-c1ccc(Br)s1 [Cpd 43, 5-(5-bromo-thiophen-2-yl)-1-(2,4-dichloro-phenyl)-4-ethyl-1H-pyrazole-3-carboxylic acid [(1S)-1-cyclohexyl-ethyl]-amide] | – | 39% | 8 nM | –
14 | Cc1c(C(=O)NN2CCCCC2)nn(-c2ccc(Cl)cc2Cl)c1-c1cccs1 [Cpd 10, 1-(2,4-dichloro-phenyl)-4-methyl-5-thiophen-2-yl-1H-pyrazole-3-carboxylic acid piperidin-1-ylamide] | 37% | 6% | – | –
15 | CCc1c(C(=O)NN2CCCCC2)nn(-c2ccc(Cl)cc2Cl)c1-c1ccc(Cl)s1 [Cpd 15, 5-(5-chloro-thiophen-2-yl)-1-(2,4-dichloro-phenyl)-4-ethyl-1H-pyrazole-3-carboxylic acid piperidin-1-ylamide] | – | 29% | 12 nM | –
16 | Cc1c(C(=O)N[C@H](C)C2CCCCC2)nn(-c2ccc(Cl)cc2Cl)c1-c1cccs1 [Cpd 5, 1-(2,4-dichloro-phenyl)-4-methyl-5-thiophen-2-yl-1H-pyrazole-3-carboxylic acid [(1R)-1-cyclohexyl-ethyl]-amide] | 43% | 15% | – | –
17 | N#Cc1c(C(=O)NN2CCCCC2)nn(-c2ccc(Cl)cc2Cl)c1-c1ccc(Cl)s1 [Cpd 23, 5-(5-chloro-thiophen-2-yl)-4-cyano-1-(2,4-dichloro-phenyl)-1H-pyrazole-3-carboxylic acid piperidin-1-ylamide] | – | 22% | 71 nM | –
18 | Cc1ccc(-c2c(C)c(C(=O)NN3CCCCC3)nn2-c2ccc(Cl)cc2Cl)o1 [Cpd 53, 1-(2,4-dichloro-phenyl)-4-methyl-5-(5-methyl-furan-2-yl)-1H-pyrazole-3-carboxylic acid piperidin-1-ylamide] | 40% | 21% | – | –
19 | Cc1ccc(-c2c(C)c(C(=O)N[C@H](C)c3ccccn3)nn2-c2ccc(Cl)cc2Cl)o1 [Cpd 56, 1-(2,4-dichloro-phenyl)-4-methyl-5-(5-methyl-furan-2-yl)-1H-pyrazole-3-carboxylic acid [(1R)-1-pyridin-2-yl-ethyl]-amide] | 41% | 26% | – | –
20 | C[C@H](NC(=O)c1nn(-c2ccc(Cl)cc2Cl)c(-c2cccs2)c1C#N)c1ccccc1 [Cpd 19, 4-cyano-1-(2,4-dichloro-phenyl)-5-thiophen-2-yl-1H-pyrazole-3-carboxylic acid [(1S)-1-phenyl-ethyl]-amide] | 45% | 24% | – | –
21 | Cc1c(C(=O)NN2CCCCC2)nn(-c2ccc(Cl)cc2Cl)c1-c1ccc(F)s1 [Cpd 28, 1-(2,4-dichloro-phenyl)-5-(5-fluoro-thiophen-2-yl)-4-methyl-1H-pyrazole-3-carboxylic acid piperidin-1-ylamide] | 69% | 20% | – | –
22 | Cc1ccc(-c2c(C)c(C(=O)N[C@H](C)C3CCCCC3)nn2-c2ccc(Cl)cc2Cl)o1 [Cpd 57, 1-(2,4-dichloro-phenyl)-4-methyl-5-(5-methyl-furan-2-yl)-1H-pyrazole-3-carboxylic acid [(1R)-1-cyclohexyl-ethyl]-amide] | 46% | 28% | – | –
23 | CCc1c(C(=O)NN2CCCCC2)nn(-c2ccc(Cl)cc2Cl)c1-c1ccc(Br)s1 [Cpd 35, 5-(5-bromo-thiophen-2-yl)-1-(2,4-dichloro-phenyl)-4-ethyl-1H-pyrazole-3-carboxylic acid piperidin-1-ylamide] | – | 29% | 13 nM | –
24 | Cc1ccc(-c2c(C)c(C(=O)N[C@@H](C)c3ccccc3)nn2-c2ccc(Cl)cc2Cl)o1 [Cpd 54, 1-(2,4-dichloro-phenyl)-4-methyl-5-(5-methyl-furan-2-yl)-1H-pyrazole-3-carboxylic acid [(1S)-1-phenyl-ethyl]-amide] | – | 52% | – | 140 nM
25 | C[C@@H](NC(=O)c1nn(-c2ccc(Cl)cc2Cl)c(-c2ccc(Cl)s2)c1C#N)C1CCCCC1 [Cpd 24, 5-(5-chloro-thiophen-2-yl)-4-cyano-1-(2,4-dichloro-phenyl)-1H-pyrazole-3-carboxylic acid [(1R)-1-cyclohexyl-ethyl]-amide] | – | 13% | 15 nM | –
